Measured values reported in a melting point compilation (Tetko et al.; mined from patent text by program, amines drawn as free bases though some values may be those of a salt).

SMILES	melting point [°C]
O=C(O)c1ccc(-c2coc(-c3ccc(Cl)cc3)n2)cc1	288 to 289
CC(=O)CN1C(=O)C(NC(=O)Nc2cccc(-c3nnn[nH]3)c2)N=C(c2ccccc2F)c2cccc(C)c21 (stereo unspecified)	174 to 190
COc1nc(C)c(CCN2CC=C(c3c[nH]c4ccccc34)CC2)c(=O)n1C	209 to 211
CSCc1cn(C)c2cc(C(F)(F)F)ccc2c1=O	182 to 184
Cc1ccccc1C(=S)N1CC1C#N (stereo unspecified)	67 to 69
Cc1c(C#N)c(=O)[nH]c(=O)n1Nc1c(Cl)cc(Cl)cc1Cl	> 305
CS(=O)(=O)c1ccc(-c2cc(C(F)(F)F)nn2-c2ccc(OC(F)(F)F)cc2)cc1F	110 to 112
OC(CNCc1ccccc1)COc1ccc(CCOCC2CC2)cc1 (stereo unspecified)	75 to 76
Cc1oc(-c2ccc(C(F)(F)F)cc2)nc1CC#N	85 to 86
Clc1ccccc1C=C(CBr)c1ccccc1	78
C#Cc1c2ccccc2nc2c(OC)ccc(OC)c12	155 to 157
O=c1[nH]c(=O)n2c3c1cnn3C(c1cccc(C(F)(F)F)c1)=CC2	260 to 262
NS(=O)(=O)c1ccc(CCN2C(=O)c3ccccc3C2c2ccccc2)cc1 (stereo unspecified)	218
O=C(O)c1cccc(N2C(=O)c3cccc([N+](=O)[O-])c3C2=O)c1	354 to 355
O=C(CCc1c[nH]c2ccccc12)NCc1ccccc1	73 to 75
CC12CCC(O[Si](C)(C)C(C)(C)C)CC1=CC(=O)C1C2CCC2(C)C(O[Si](C)(C)C(C)(C)C)CCC12 (stereo unspecified)	99 to 101
COC(=O)c1cc(-c2ccccc2)sc1Nc1ccc(F)cc1[N+](=O)[O-]	150
C=C1Cc2cc3c(cc2C(c2ccc(N(C(C)=O)C(C)=O)cc2)=NN1C(C)=O)OCO3	240 to 245
COc1ccc(C(=O)Nc2ccc(C)c(Cl)c2)cc1NC(=S)Nc1cc(Cl)cc(Cl)c1	195 to 196
CCOC(=O)/C(C)=C/c1ccc(Br)cc1	82
O=[N+]([O-])c1cc(Cl)c(Oc2cc(Cl)c(Br)cc2Cl)cc1NCc1ccccc1	157
COC(=O)c1cc2cc(OCc3ccccc3)ccc2n1CC(=O)N(C)CCc1ccccc1	155 to 156
Cn1c(C(F)(F)F)cc(C#N)c1-c1ccc(Cl)cc1	130
COc1cc2c(Nc3ccc(Oc4ccccc4OC)cc3)c(C#N)cnc2cc1F	146 to 150
Cc1cc(=O)[nH]c2c3c(cc(O)c12)OC(C)C(C)C3=O (stereo unspecified)	300
COc1ccc(C(=O)Nc2ccccc2)cc1NC(=S)Nc1cccc(C(C)=O)c1	176 to 177
Cc1nnc(-c2ccc3occ(-c4ccc(S(=O)(=O)N(C)C)cc4)c3c2)o1	246 to 247
CCn1c(C)nc2cc(S(C)(=O)=O)ccc21	140 to 142

SMILES	melting point [°C]
CC(C)OC(=O)Nc1ccc(N)c([N+](=O)[O-])c1	173 to 175
CC(=O)c1ccc(Oc2ccc(I)cc2)cc1	99 to 101
COc1ccc2c(c1)CCC1=C2CCC2(C)C(O)CCC12 (stereo unspecified)	110 to 112
CCOC(=O)C(C)(C)Oc1ccc(OCCn2c(=O)sc3cc(C(=O)c4ccccc4)ccc32)cc1	120 to 121
Brc1ccccc1SSc1ccccc1Br	95 to 97
COc1cc(CON=C(CCC(=O)O)c2ccccc2)ccc1OCc1nc(-c2ccccc2)oc1C	134 to 135
COCc1cc(-c2c(S(C)(=O)=O)ccc(C(=O)C3C(=O)CCCC3=O)c2Cl)no1	39 to 40
CCCn1cc(Cc2ccc(C(=O)NS(=O)(=O)c3ccccc3C)cc2OC)c2cc(CCCCC(=O)N(C)C)ccc21	80 to 85
COC(=O)CCCOc1ccccc1I	66.5 to 67
O=C1CC(c2cccs2)CN1 (stereo unspecified)	75 to 76.5
CS(=O)(=O)c1ccc(-c2nn(CC3CC3)c(=O)cc2-c2ccc(Cl)cc2)cc1	140
N#CCCCN(Cc1ccccc1)Cc1ccccc1	45 to 46
CC1(C)OCC(COc2cc(N)c([N+](=O)[O-])cc2I)O1 (racemic)	151
COc1nc(Cl)c(-c2c(F)cc(F)cc2F)c(N[C@@H](C)C(F)(F)F)n1	121 to 129
COc1cccc2c3c(c(=O)[nH]c12)CCN3c1cccc(C)c1	155 to 157
Clc1ncccc1OCC#CI	164 to 165
Nc1c(-c2ccc(O)cc2)ncnc1-c1ccc(Cl)cc1Cl	97.3 to 98.2
N#Cc1ccc(-c2cccc(-c3nc4ccc(C#N)cc4[nH]3)n2)cc1	311 to 312
Cc1ccc2ncc(CSc3ccc([N+](=O)[O-])cc3)n2c1	127 to 128
CCCCCc1ccc(-c2ccc(-c3c(C(=O)OC)c4c(c5ccccc35)OC(c3ccccc3)(c3ccc(N(CC)CC)cc3)C=C4)cc2)cc1 (stereo unspecified)	177 to 178
CS(=O)(=O)C(=C1CN(C(c2ccccc2)c2ccccc2)C1)c1cccc2cccnc12	212
Cc1ccccc1CCOCC(=O)O	47 to 48
O=C(O)Cc1cn(C(=O)c2cncs2)c2ccc(Cl)cc12	175 to 180
CCCCOC(=O)CCCOc1ccc(F)c(C(N)=O)c1F	53 to 55
CCS(=O)c1nc2ccc([N+](=O)[O-])cc2s1 (stereo unspecified)	145 to 149
CN1Cc2c(c3ccccc3c3ccccc23)C1	122 to 123
CC(C)(C)NC(=O)NC(Cc1ccccc1)C(=O)Nc1c(F)cc(F)cc1F (stereo unspecified)	205 to 206

Further lines, results first:

melting point [°C]	SMILES
206 to 207	CN(CCCNC(=O)c1c(Cl)ccc2nc3ccccc3nc12)CCCNC(=O)c1c(Cl)ccc2nc3ccccc3nc12
122 to 123	Nc1ncnc2ncn(COCCO)c12
113 to 116	O=C(c1ccccc1)N1CCC(O)(c2ccccc2Cc2ccccc2)C1 (stereo unspecified)
54	O=C1CC2(CCCC2)c2ccc(Cl)cc21
119 to 120	CCOC(=O)N[C@@H]1CCc2c(ccc(OCc3ccccc3)c2N(C)Cc2ccccc2)[C@H]1O (relative stereo)
128 to 133	COc1ccc(C2CNC(=O)C2)cc1OCC(CN1CCN(c2ccccc2)CC1)OC(C)=O (stereo unspecified)
61 to 64	CCCCCc1nc(C#N)c(C#N)nc1O
70.5 to 72.5	Cc1oncc1C(=O)N1CCC(O)CC1
186 to 188	COc1ccc(-n2nc(CCC(=O)NCC(=O)O)cc2-c2ccc(Cl)cc2)cc1
124 to 127	C=CCNc1nc(NCC=C)nc(N2CCN(C(=S)n3ccnc3)CC2)n1
298 to 301	N#Cc1ccc2nc(C(=O)NCc3cccc(NC(=O)CCc4nc[nH]n4)c3)[nH]c(=O)c2c1
199	CSC(=S)Nc1ccc(C)cc1C(=O)O
101 to 102	O=C(CCCN1CCC(O)CC1)c1ccccc1
82 to 84	COC(=O)c1cc(O)nn1Cc1ccccc1
48.5 to 49.5	Cn1nnnc1SCc1ccccc1
145 to 149	CCC(O)=C1SC(=S)N(c2ccc(Cl)cc2)C1=O
204 to 206	CC(C)c1csc(/C=C/c2cc(NC(=O)Cc3ccccc3C(=O)O)ccc2Cl)n1
256 to 258	CCc1nc(N)nc(N)c1-c1ccc(N(C)C)c([N+](=O)[O-])c1
186 to 188	O=C1COc2cc(C(=O)N3CCOCC3)ccc2N1
166 to 167	O=C1CC(c2cccc(-c3nc(CN4CCOCC4)co3)c2)=Nc2ccc(-n3cccc3)cc2N1
176	O=C(O)c1cn(C2CC2)c2cc(N3CCNC(c4ccco4)C3)c(F)cc2c1=O (stereo unspecified)
131	COc1ccc(CCC2COC(Cn3ccnc3)(c3ccc(Cl)cc3Cl)O2)cc1 (stereo unspecified)
106 to 108	CN(C(=O)c1ccc2nsnc2c1)C1CCOCC1

melting point [°C]	SMILES
170	COc1nc(OC)nc(-n2cnc(S(C)(=O)=O)n2)n1
92.5 to 93.5	CON=C(c1ccccc1OCc1ccc(Cl)cc1)n1ccnc1
93 to 96	CCc1nc(N)nc(N)c1CCC(C)c1cccc(C(F)(F)F)c1 (stereo unspecified)
60 to 62	CCOC(=O)c1nn(-c2ccc(CP(=O)(OCC)OCC)cc2)nc1C
172 to 175	CC(C)(C#N)OC(=O)Nc1ccc(-c2ncn(-c3ccc(OC(F)(F)F)cc3)n2)cc1
162 to 163	O=C1CCCc2nc3ccccc3c(NCc3ccccc3)c21
192 to 193	Cc1c(OCc2ccccc2)c(=O)ccn1CCO
85 to 87	CCc1cc(Oc2ncc(C(F)(F)F)cc2Cl)nn1C(=O)NC
175 to 177	Cc1cccc(N2CCN(CCCCc3ccc(C(CCC(=O)O)=NO)cc3)CC2)c1
160 to 161	COC(=O)C(C=CC(=O)O)=CNc1ccc(Cl)cc1
138 to 140	CC(=O)c1cn(S(=O)(=O)c2ccccc2)c2nccc(OCC3CCCCC3)c12
162 to 164	CC(C)(C)c1cc(-c2nn(CC(N)=O)c3ncccc23)cc(C(C)(C)C)c1O
94	O=C(OCc1ccnc2ccccc12)ON1C(=O)CCC1=O
243	Cc1cc(-c2cc(C(F)F)n3ncc(-c4nc(-c5ccc(N)nc5)no4)c3n2)ccc1Cl
74	CCCNC(=O)n1c(Cc2ccccc2)noc1=O
122 to 124	COc1ccc2c(c1)CCC1C2CCC2(C)C1CCC2N(C)CCCO (stereo unspecified)
181 to 183	O=C(O)C1CCc2[nH]c3ccc(Cl)cc3c2C1 (stereo unspecified)
207	CS(=O)(=O)N[C@@H]1CN2C(=O)N(c3cc(Cl)nc(Cl)c3)C(=O)[C@@]2(Cc2ccc(OC(F)(F)F)cc2)C1
243 to 245	O=C(Cc1ccc(Cl)cc1)NCc1cccc2c1C(=O)N(C1CCC(=O)NC1=O)C2=O (stereo unspecified)
274 to 276	NCc1cccc(C2CCN(c3nc4c(cc3F)c(=O)c(C(=O)O)cn4C3CC3)C2)c1 (stereo unspecified)
112 to 117	CCCC(=O)N(Cc1ccc(Cl)cc1Cl)c1c(NC(C)(C)CC)c(=O)c1=O
110 to 115	O=C(c1cc2cc(OCCNC[C@H](O)COc3ccccc3)ccc2[nH]1)N1CCCC1
104 to 105	O=C(O)CCSC(=S)NCc1ccc(Cl)cc1
